# Measured values as given in patent US9340590B2 (priority 2011, dated 2016).
# pIC50: −log10 of the molar value. Read-outs that look alike come from different tables or passages of the source. Positions of bridges follow the written chain, without caps; N, C: chain ends. Residues, ends and D or L forms follow the SMILES beside them.
# Experiments:
# [1] = system: formalin pain model in male CD-1 mice; conditions: in vivo
# hNav1.3 [2] = biological target: T1, hNav1.3 (Homo sapiens, UniProt Q9NY46); assay: cell-based; conditions: IonWorks Quattro, read-out: IWQ Use Nav1.3
# [3] = system: locomotor activity in male CD-1 mice; conditions: 5 mg/kg s.c.
# hNav1.7 [4] = biological target: T2, hNav1.7 (Homo sapiens, UniProt Q15858); assay: cell-based; format: cell-based; conditions: IonWorks Quattro, Use; read-out: IWQ Use Nav1.7
# hNav1.5 = hNav1.5 (Homo sapiens, UniProt Q14524); assay: cell-based
# [5] = human plasma, 37° C.
# [6] = mouse plasma, 37° C.
# hNav1.7 [7] = biological target: T2, hNav1.7; assay: cell-based; conditions: Nav1.7 Use IC50
# hNav1.3 [8] = biological target: T1, hNav1.3; assay: cell-based; format: cell-based; conditions: Nav1.3 Use IC50
# in vitro [9] = conditions: human, plasma
# in vitro [10] = conditions: mouse, plasma
# [11] = incubation time 0 hr (normalisation point)
# [12] = clamped to −110 mV, depolarized to −10 mV, 5 min after compound, n=2
# T1 sequence (Q9NY46 whole entry, looked up): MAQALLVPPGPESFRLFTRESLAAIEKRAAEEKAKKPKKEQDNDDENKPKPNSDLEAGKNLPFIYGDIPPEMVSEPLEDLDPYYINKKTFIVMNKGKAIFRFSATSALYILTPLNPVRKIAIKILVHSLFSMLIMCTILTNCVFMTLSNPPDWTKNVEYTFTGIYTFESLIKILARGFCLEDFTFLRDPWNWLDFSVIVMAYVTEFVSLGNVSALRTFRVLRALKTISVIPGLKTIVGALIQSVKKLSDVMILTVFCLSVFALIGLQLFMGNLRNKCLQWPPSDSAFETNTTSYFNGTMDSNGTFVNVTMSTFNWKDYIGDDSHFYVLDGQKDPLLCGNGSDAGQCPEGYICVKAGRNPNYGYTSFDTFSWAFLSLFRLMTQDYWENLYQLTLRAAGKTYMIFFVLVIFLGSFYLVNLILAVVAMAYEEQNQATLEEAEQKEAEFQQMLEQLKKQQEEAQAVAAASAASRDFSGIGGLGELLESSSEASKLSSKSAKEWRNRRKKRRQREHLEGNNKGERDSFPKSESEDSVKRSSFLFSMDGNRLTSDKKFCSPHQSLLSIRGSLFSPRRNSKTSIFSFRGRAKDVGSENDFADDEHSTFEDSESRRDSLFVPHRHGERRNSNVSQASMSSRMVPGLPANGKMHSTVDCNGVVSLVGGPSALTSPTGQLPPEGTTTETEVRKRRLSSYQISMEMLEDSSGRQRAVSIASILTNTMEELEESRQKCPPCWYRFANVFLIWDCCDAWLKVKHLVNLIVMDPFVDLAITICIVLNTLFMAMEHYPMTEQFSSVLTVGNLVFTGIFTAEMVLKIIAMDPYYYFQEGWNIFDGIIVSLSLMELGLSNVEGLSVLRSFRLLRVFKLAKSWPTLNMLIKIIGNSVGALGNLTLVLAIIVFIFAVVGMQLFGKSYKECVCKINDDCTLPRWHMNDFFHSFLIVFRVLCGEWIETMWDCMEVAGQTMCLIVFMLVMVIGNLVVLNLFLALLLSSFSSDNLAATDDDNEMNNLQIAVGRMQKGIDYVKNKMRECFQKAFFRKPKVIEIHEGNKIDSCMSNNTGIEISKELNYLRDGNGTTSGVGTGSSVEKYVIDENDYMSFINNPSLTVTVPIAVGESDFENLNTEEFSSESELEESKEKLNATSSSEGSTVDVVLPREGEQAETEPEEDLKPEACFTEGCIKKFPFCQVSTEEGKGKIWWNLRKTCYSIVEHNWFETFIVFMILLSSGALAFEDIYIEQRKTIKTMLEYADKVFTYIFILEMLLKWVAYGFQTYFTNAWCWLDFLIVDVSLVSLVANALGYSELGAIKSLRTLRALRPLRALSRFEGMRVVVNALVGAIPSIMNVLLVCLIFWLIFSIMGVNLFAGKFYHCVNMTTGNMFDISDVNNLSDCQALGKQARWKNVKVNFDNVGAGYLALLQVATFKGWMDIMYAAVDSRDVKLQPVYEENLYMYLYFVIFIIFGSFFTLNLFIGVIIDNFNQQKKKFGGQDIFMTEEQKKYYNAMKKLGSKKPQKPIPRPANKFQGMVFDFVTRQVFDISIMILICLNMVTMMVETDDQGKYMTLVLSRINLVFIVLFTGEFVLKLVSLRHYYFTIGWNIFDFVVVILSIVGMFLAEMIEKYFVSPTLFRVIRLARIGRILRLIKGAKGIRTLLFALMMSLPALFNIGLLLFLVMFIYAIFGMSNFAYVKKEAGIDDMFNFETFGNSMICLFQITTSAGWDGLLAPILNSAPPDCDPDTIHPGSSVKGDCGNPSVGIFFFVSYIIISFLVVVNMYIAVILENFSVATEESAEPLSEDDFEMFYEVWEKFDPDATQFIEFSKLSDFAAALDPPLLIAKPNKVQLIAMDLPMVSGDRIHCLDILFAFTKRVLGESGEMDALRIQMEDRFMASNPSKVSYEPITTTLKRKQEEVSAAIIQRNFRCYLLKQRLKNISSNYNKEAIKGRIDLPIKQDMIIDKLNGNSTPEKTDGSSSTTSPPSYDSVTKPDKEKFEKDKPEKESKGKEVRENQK
# Chain of hNav1.5 (Q14524 whole entry, looked up): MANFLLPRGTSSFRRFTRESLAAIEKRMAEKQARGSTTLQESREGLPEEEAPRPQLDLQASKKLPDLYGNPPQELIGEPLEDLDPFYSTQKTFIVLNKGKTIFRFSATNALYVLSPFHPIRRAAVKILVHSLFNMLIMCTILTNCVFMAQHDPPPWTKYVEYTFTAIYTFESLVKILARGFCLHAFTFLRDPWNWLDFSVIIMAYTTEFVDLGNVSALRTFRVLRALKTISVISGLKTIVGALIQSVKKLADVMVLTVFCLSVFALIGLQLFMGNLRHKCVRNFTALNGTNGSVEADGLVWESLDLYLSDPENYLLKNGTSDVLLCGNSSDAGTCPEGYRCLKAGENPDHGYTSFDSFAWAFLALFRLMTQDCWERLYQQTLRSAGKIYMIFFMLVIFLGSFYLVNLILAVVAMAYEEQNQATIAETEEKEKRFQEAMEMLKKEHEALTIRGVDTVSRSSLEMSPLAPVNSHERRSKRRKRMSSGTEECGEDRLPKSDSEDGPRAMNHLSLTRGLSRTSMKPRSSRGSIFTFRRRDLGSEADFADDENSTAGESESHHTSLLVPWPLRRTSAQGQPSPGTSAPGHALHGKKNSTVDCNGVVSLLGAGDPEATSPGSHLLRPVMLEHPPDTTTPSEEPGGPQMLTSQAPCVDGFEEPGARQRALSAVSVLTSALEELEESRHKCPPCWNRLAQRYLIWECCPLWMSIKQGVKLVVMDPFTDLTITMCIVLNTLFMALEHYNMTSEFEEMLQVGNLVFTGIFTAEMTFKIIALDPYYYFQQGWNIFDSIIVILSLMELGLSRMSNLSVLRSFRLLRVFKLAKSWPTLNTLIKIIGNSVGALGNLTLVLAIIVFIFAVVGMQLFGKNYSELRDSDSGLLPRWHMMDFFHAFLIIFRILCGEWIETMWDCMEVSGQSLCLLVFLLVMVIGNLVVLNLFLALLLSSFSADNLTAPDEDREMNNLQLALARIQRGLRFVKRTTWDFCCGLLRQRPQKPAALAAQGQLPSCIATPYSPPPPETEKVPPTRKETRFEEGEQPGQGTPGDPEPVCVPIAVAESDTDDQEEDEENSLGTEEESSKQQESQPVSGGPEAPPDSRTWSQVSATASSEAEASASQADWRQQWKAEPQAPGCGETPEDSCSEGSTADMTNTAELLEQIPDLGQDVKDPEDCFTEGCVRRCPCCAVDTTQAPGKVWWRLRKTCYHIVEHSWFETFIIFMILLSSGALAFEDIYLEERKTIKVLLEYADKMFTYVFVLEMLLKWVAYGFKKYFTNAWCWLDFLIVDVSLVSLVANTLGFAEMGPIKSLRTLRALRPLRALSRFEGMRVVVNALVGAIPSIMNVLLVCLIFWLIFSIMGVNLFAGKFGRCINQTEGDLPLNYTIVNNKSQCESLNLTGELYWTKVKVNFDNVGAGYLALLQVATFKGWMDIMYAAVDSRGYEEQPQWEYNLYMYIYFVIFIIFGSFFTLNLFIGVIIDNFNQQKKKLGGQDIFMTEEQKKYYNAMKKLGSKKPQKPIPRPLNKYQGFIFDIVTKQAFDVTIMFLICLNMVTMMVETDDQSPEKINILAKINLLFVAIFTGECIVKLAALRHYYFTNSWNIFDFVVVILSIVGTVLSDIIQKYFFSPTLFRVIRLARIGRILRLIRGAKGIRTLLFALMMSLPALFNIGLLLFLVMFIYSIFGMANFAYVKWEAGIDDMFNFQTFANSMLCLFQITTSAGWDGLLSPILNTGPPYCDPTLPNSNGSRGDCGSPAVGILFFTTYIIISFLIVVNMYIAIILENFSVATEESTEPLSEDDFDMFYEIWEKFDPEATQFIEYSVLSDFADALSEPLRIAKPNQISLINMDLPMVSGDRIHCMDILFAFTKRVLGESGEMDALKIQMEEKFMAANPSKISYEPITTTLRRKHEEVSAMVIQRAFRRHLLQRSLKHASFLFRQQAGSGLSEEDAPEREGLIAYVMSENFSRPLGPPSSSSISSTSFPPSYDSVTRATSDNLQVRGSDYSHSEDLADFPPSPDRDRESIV
compound,measurement,setting,value
"CC[C@H](C)[C@@H]1NC(=O)[C@@H]2CSSC[C@@H]3NC(=O)[C@H](C(C)C)NC(=O)[C@H](CC(C)C)NC(=O)[C@H](CC(N)=O)NC(=O)[C@@H]4CCCN4C(=O)[C@H](CCCNC(=N)N)NC(=O)[C@H](CSSC[C@H](NC(=O)[C@@H](N)CC(=O)O)C(=O)N[C@@H](CC(C)C)C(=O)NCC(=O)N[C@@H](Cc4ccccc4)C(=O)N[C@@H](CCSC)C(=O)N[C@@H](CCCNC(=N)N)C(=O)N[C@@H](CCCCN)C(=O)N2)NC(=O)[C@H](CSSC[C@@H](C(=O)N[C@@H](CCCCN)C(=O)N[C@@H](Cc2ccc(O)cc2)C(=O)N[C@H](C(=O)N[C@@H](Cc2ccccc2)C(N)=O)C(C)C)NC(=O)[C@H](CCC(=O)O)NC(=O)[C@H](CCCCN)NC(=O)[C@H](Cc2c[nH]cn2)NC(=O)[C@H]([C@@H](C)O)NC(=O)[C@H](CCCNC(=N)N)NC(=O)[C@H](CO)NC3=O)NC(=O)[C@H](CCCCN)NC(=O)[C@H](CC(=O)O)NC(=O)[C@H](CC(N)=O)NC(=O)[C@H](CC(=O)O)NC(=O)[C@@H]2CCCN2C1=O [SEQ ID NO: 30, [Glu29]GpTx-1(1-34)] (H-DCLGFMRKCIPDNDKCCRPNLVCSRTHKECKYVF-NH2; disulfide 2-17, 9-23, 16-30)","time spent lifting/licking, second phase",[1]; mouse,no significant effect
"CC[C@H](C)[C@@H]1NC(=O)[C@@H]2CSSC[C@@H]3NC(=O)[C@H](C(C)C)NC(=O)[C@H](CC(C)C)NC(=O)[C@H](CC(N)=O)NC(=O)[C@@H]4CCCN4C(=O)[C@H](CCCNC(=N)N)NC(=O)[C@H](CSSC[C@H](NC(=O)[C@@H](N)CC(=O)O)C(=O)N[C@@H](CC(C)C)C(=O)NCC(=O)N[C@@H](Cc4ccccc4)C(=O)N[C@@H](CCSC)C(=O)N[C@@H](CCCNC(=N)N)C(=O)N[C@@H](CCCCN)C(=O)N2)NC(=O)[C@H](CSSC[C@@H](C(=O)N[C@@H](CCCCN)C(=O)N[C@@H](Cc2ccc(O)cc2)C(=O)N[C@H](C(=O)N[C@@H](Cc2ccccc2)C(N)=O)C(C)C)NC(=O)[C@H](CCC(=O)O)NC(=O)[C@H](CCCCN)NC(=O)[C@H](Cc2cnc[nH]2)NC(=O)[C@H]([C@@H](C)O)NC(=O)[C@H](CCCNC(=N)N)NC(=O)[C@H](CO)NC3=O)NC(=O)[C@H](CCCCN)NC(=O)[C@H](CC(=O)O)NC(=O)[C@H](CC(N)=O)NC(=O)[C@H](CC(=O)O)NC(=O)[C@@H]2CCCN2C1=O [SEQ ID NO: 30, [Glu29]GpTx-1(1-34)] (H-DCLGFMRKCIPDNDKCCRPNLVCSRTHKECKYVF-NH2; disulfide 2-17, 9-23, 16-30)",pIC50,"hNav1.3 [2]; Table 24, use, […]",4.79
same,terminal exposure (peptide plasma concentration at 45 min post formalin injection),"[1]; male, CD-1, mouse, sc, 5 mg/kg, […]",0.502 ± 0.271 µM
same,locomotor activity in the open field analysis,[3],no significant effect
same,terminal exposure (peptide plasma concentration at 2 h post peptide injection),[3]; later studies,0.771 ± 0.272 µM
"CSCC[C@@H]1NC(=O)[C@H](Cc2ccccc2)NC(=O)CNC(=O)[C@H](CC(C)C)NC(=O)[C@@H](NC(=O)[C@@H](N)CC(=O)O)CSSC[C@@H]2NC(=O)[C@@H]3CSSC[C@@H](C(=O)N[C@@H](CCCCN)C(=O)N[C@@H](Cc4ccc(O)cc4)C(=O)N[C@H](C(=O)N[C@@H](Cc4ccccc4)C(N)=O)C(C)C)NC(=O)[C@H](Cc4c[nH]c5ccccc45)NC(=O)[C@H](CCCCN)NC(=O)[C@H](Cc4c[nH]cn4)NC(=O)[C@H]([C@@H](C)O)NC(=O)[C@H](CCCNC(=N)N)NC(=O)[C@H](CO)NC(=O)[C@H](CSSC[C@H](NC(=O)[C@H](CCCCN)NC(=O)[C@H](CCCNC(=N)N)NC1=O)C(=O)N[C@@H](Cc1cccc4ccccc14)C(=O)N1CCC[C@H]1C(=O)N[C@@H](CC(=O)O)C(=O)N[C@@H](CC(N)=O)C(=O)N[C@@H](CC(=O)O)C(=O)N[C@@H](CCCCN)C(=O)N3)NC(=O)[C@H](C(C)C)NC(=O)[C@H](CC(C)C)NC(=O)[C@H](CC(N)=O)NC(=O)[C@@H]1CCCN1C(=O)[C@H](CCCNC(=N)N)NC2=O [SEQ ID NO: 78, [1-Nal10]GpTx-1(1-34)]",pIC50,hNav1.7 [4],6.82
same,IC50,hNav1.5; IWQ Use Nav1.5 (μM),10 µM
same,pIC50,hNav1.3 [2]; Use,6.68
same,% peptide remaining,[5]; [11],100%
same,% peptide remaining,[5]; incubation time 2 hr,99%
same,% peptide remaining,[5]; incubation time 4 hr,93%
same,% peptide remaining,[5]; incubation time 8 hr,97%
same,% peptide remaining,[5]; incubation time 24 hr,82%
same,% peptide remaining,[6]; [11],100%
same,% peptide remaining,[6]; incubation time 2 hr,98%
same,% peptide remaining,[6]; incubation time 4 hr,92%
same,% peptide remaining,[6]; incubation time 8 hr,92%
same,% peptide remaining,[6]; incubation time 24 hr,88%
"CC[C@H](C)[C@@H]1NC(=O)[C@@H]2CSSC[C@@H]3NC(=O)[C@H](C(C)C)NC(=O)[C@H](CC(C)C)NC(=O)[C@H](CC(N)=O)NC(=O)[C@@H]4CCCN4C(=O)[C@H](CCCNC(=N)N)NC(=O)[C@H](CSSC[C@H](N)C(=O)N[C@@H](CC(C)C)C(=O)NCC(=O)N[C@@H](Cc4ccccc4)C(=O)N[C@@H](CCSC)C(=O)N[C@@H](CCCNC(=N)N)C(=O)N[C@@H](CCCCN)C(=O)N2)NC(=O)[C@H](CSSC[C@@H](C(=O)N[C@@H](CCCCN)C(=O)N[C@@H](Cc2ccc(O)cc2)C(=O)N[C@H](C(=O)N[C@@H](Cc2ccccc2)C(N)=O)C(C)C)NC(=O)[C@H](Cc2c[nH]c4ccccc24)NC(=O)[C@H](CCCCN)NC(=O)[C@H](Cc2cnc[nH]2)NC(=O)[C@H]([C@@H](C)O)NC(=O)[C@H](CCCNC(=N)N)NC(=O)[C@H](CO)NC3=O)NC(=O)[C@H](CCCCN)NC(=O)[C@H](CC(=O)O)NC(=O)[C@H](CC(N)=O)NC(=O)[C@H](CC(=O)O)NC(=O)[C@@H]2CCCN2C1=O [SEQ ID NO: 108] (H-CLGFMRKCIPDNDKCCRPNLVCSRTHKWCKYVF-NH2; disulfide 1-16, 8-22, 15-29)",pIC50,"hNav1.5; IonWorks Quattro, clamped to −110 mV, depolarized to −10 mV, 5 min after compound, n=2, read-out: IWQ Use Nav1.5",5.09
same,pIC50,hNav1.3 [2]; [12],7.30
same,pIC50,hNav1.7 [7],8.15
same,pIC50,hNav1.3 [8],7.82
same,% peptide remaining,[5]; [11],100%
same,% peptide remaining,[6]; [11],100%
same,remaining at 2 h,in vitro [9],107%
same,remaining at 4 h,in vitro [9],92%
same,remaining at 8 h,in vitro [9],91%
same,remaining at 24 h,in vitro [9],82%
same,remaining at 2 h,in vitro [10],100%
same,remaining at 4 h,in vitro [10],95%
same,remaining at 8 h,in vitro [10],87%
same,remaining at 24 h,in vitro [10],81%
CC[C@H](C)[C@@H]1NC(=O)[C@@H]2CSSC[C@@H]3NC(=O)[C@H](C(C)C)NC(=O)[C@H](CC(C)C)NC(=O)[C@H](CC(N)=O)NC(=O)[C@@H]4CCCN4C(=O)[C@H](CCCNC(=N)N)NC(=O)[C@H](CSSC[C@H](NC(=O)[C@H](CC(=O)O)NC(C)=O)C(=O)N[C@@H](CC(C)C)C(=O)NCC(=O)N[C@@H](Cc4ccccc4)C(=O)N[C@@H](CCSC)C(=O)N[C@@H](CCCNC(=N)N)C(=O)N[C@@H](CCCCN)C(=O)N2)NC(=O)[C@H](CSSC[C@@H](C(=O)N[C@@H](CCCCN)C(=O)N[C@@H](Cc2ccc(O)cc2)C(=O)N[C@H](C(=O)N[C@@H](Cc2ccccc2)C(N)=O)C(C)C)NC(=O)[C@H](Cc2c[nH]c4ccccc24)NC(=O)[C@H](CCCCN)NC(=O)[C@H](Cc2cnc[nH]2)NC(=O)[C@H]([C@@H](C)O)NC(=O)[C@H](CCCNC(=N)N)NC(=O)[C@H](CO)NC3=O)NC(=O)[C@H](CCCCN)NC(=O)[C@H](CC(=O)O)NC(=O)[C@H](CC(N)=O)NC(=O)[C@H](CC(=O)O)NC(=O)[C@@H]2CCCN2C1=O [SEQ ID NO: 132],pIC50,hNav1.5; IWQ Use Nav1.5,4.90
same,pIC50,hNav1.3 [2]; [12],6.66
same,pIC50,hNav1.3 [8],7.08
same,% peptide remaining,[5]; [11],100%
same,% peptide remaining,[6]; [11],100%
same,remaining at 2 h,in vitro [9],100%
same,remaining at 4 h,in vitro [9],104%
same,remaining at 8 h,in vitro [9],101%
same,remaining at 24 h,in vitro [9],97%
same,remaining at 2 h,in vitro [10],105%
same,remaining at 4 h,in vitro [10],103%
same,remaining at 8 h,in vitro [10],103%
same,remaining at 24 h,in vitro [10],106%
"CC[C@H](C)[C@@H]1NC(=O)[C@@H]2CSSC[C@@H]3NC(=O)[C@H](C(C)C)NC(=O)[C@H](CC(C)C)NC(=O)[C@H](CC(N)=O)NC(=O)[C@@H]4CCCN4C(=O)[C@H](CCCNC(=N)N)NC(=O)[C@H](CSSC[C@H](NC(=O)[C@@H](N)CC(=O)O)C(=O)N[C@@H](CC(C)C)C(=O)NCC(=O)N[C@@H](Cc4ccccc4)C(=O)N[C@@H](CCSC)C(=O)N[C@@H](CCCNC(=N)N)C(=O)N[C@@H](CCCCN)C(=O)N2)NC(=O)[C@H](CSSC[C@@H](C(=O)N[C@@H](CCCCN)C(=O)N[C@@H](Cc2ccc(O)cc2)C(=O)N[C@H](C(=O)N[C@@H](Cc2ccccc2)C(N)=O)C(C)C)NC(=O)[C@H](CCC(=O)O)NC(=O)[C@H](CCCCN)NC(=O)[C@H](Cc2c[nH]cn2)NC(=O)[C@H]([C@@H](C)O)NC(=O)[C@H](CCCNC(=N)N)NC(=O)[C@H](CO)NC3=O)NC(=O)[C@H](CCCCN)NC(=O)[C@H](CC(=O)O)NC(=O)[C@H](CC(N)=O)NC(=O)[C@H](CC(=O)O)NC(=O)[C@@H]2CCCN2C1=O [[Glu29]GpTx-1(1-34)] (H-DCLGFMRKCIPDNDKCCRPNLVCSRTHKECKYVF-NH2; disulfide 2-17, 9-23, 16-30)",paw edema caused by formalin injection,[1]; mouse,Neither the peptide nor the morphine control significantly reduced
same,"time spent lifting/licking, second phase",[1]; mouse,did not demonstrate a significant reduction
"CN1CC[C@]23c4c5ccc(O)c4O[C@H]2[C@@H](O)C=C[C@H]3[C@H]1C5 [morphine, reference compound]","time spent lifting and/or licking the affected paw, first phase (0-5 minutes post formalin injection)",[1]; mouse,Neither the peptide nor the morphine positive control significantly reduced
